Laboratory results as given in ChEMBL document CHEMBL3271943, “P-Aminobenzoic acid derivatives. Mode of action and structure-activity relationships in a cell-free system (Escherichia coli)” (J Med Chem, 1977).
Calls of active or inactive are those of the source. No cut-off for these calls is given here.

Experiments:
[1] = buffer
Description: Solubility of the compound in water

Albumin = Albumin (Homo sapiens, UniProt P02768); experiment: Binding affinity to human serum albumin at 100 umol/l by equilibrium dialysis technique; type: ADME; details: isolated protein, 100 µM
physchem [2] = experiment: physchem
Description: Dissociation constant, pKa of the compound by spectrophotometric analysis

Escherichia coli [3] = experiment: microbe, parasite or virus in culture; details: 24 h, read-out: ID50
Description: Antimicrobial activity against Escherichia coli assessed as growth inhibition after 24 hrs by turbidimetric analysis

[4] = octanol/water
Description: Lipophilic-hydrophilic balance, Rm of the compound by TLC analysis

Enterococcus faecalis [5] = experiment: Induction of Streptococcus faecalis growth; type: functional, organism-based
physchem [6] = details: aqueous solution
Description: Hydrolytic dissociation constant, pKa of the compound in aqueous solution at 50 degC

Enterococcus faecalis [7] = experiment: Growth inhibition of Streptococcus faecalis; type: functional, organism-based
Escherichia coli [8] = experiment: Inhibition of Escherichia coli dihydropteroic acid synthesizing system-mediated folate production at 50 to 250 umol/l
Escherichia coli [9] = experiment: Reversal of sulfabenzene-mediated growth inhibition of Escherichia coli at 4 to 400 umol/l; type: functional, organism-based
Escherichia coli [10] = experiment: Reversal of sulfapyridine-mediated growth inhibition of Escherichia coli at 4 to 400 umol/l; type: functional, organism-based

Chain of Albumin (P02768 whole entry): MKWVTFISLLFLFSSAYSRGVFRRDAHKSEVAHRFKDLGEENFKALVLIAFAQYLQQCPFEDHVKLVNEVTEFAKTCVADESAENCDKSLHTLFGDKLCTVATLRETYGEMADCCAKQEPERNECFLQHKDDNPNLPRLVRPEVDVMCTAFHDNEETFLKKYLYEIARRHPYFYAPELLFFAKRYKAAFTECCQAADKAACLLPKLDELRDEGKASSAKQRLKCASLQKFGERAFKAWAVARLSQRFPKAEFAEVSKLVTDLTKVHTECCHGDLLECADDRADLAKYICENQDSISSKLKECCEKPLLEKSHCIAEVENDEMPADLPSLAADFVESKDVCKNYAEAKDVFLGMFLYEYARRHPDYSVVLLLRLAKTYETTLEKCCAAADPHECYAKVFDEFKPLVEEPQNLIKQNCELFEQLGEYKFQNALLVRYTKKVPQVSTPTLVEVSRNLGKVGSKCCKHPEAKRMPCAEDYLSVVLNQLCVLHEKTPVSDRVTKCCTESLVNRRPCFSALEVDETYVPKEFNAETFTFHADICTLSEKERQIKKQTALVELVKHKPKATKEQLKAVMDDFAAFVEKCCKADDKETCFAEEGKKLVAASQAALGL

log(PB) (Albumin) | pKa (physchem [2]) | IC50 (Escherichia coli [3]) [µM] | Rm [4] | Compound | further results
1.76 | 5.1 | 135 | 2.85 | CCCCCOc1cc(N)ccc1C(=O)O | solubility [1]: soluble
1.92 | 4.34 | 110 | 2.95 | Nc1ccc(C(=O)O)cc1I | 
 |  |  |  | Nc1nc(=O)c2nc(CNc3ccc(C(=O)O)c(F)c3)cnc2[nH]1 | Activity (Enterococcus faecalis [5]): Active
1.33 | 2.78 | 100 | 2.3 | Nc1ccc(C(=O)O)c([N+](=O)[O-])c1 | pKa (physchem [6]): 3.22
 |  |  | 1.21 | Nc1ccc(C(=O)O)cc1 [AMINOBENZOIC ACID] | pKa (physchem [6]): 4.67
1.63 | 5.01 | 125 | 1.68 | C=CCOc1cc(N)ccc1C(=O)O | solubility [1]: soluble
1.69 | 4.96 | 140 | 1.75 | CCCOc1cc(N)ccc1C(=O)O | solubility [1]: soluble
1.81 | 4.35 | 100 | 2.38 | Nc1ccc(C(=O)O)cc1Cl | 
1.27 | 4.59 | 85 |  | Nc1ccc(C(=O)O)cc1O | 
1.68 | 4.52 | 190 |  | N#CSc1cc(C(=O)O)ccc1N | 
1.89 | 4.24 | 110 | 2.85 | Nc1ccc(C(=O)O)cc1Br | pKa (physchem [6]): 4.31
0.95 | 4.84 | 40 |  | Cl.Nc1ccc(C(=O)O)cc1N | 
 |  |  |  | Nc1nc(=O)c2nc(CNc3ccc(C(=O)O)c(Cl)c3)cnc2[nH]1 | growth inhibition (GI) (Enterococcus faecalis [7]): inactive; Activity (Enterococcus faecalis [5]): inactive
1.37 | 4.62 | 120 | 1.6 | Cc1cc(C(=O)O)ccc1N | 
 | 5.4 | 25 | 4.25 | CCCCCCCCOc1cc(N)ccc1C(=O)O | solubility [1]: soluble
1.52 | 4.35 | 13 | 1.66 | Nc1ccc(C(=O)O)cc1F | inhibition (Escherichia coli [8]): Active
 | 4.34 | 105 |  | Nc1ccc(C(=O)O)cc1C(=O)c1ccccc1 | solubility [1]: soluble
0.45 |  | 120 |  | Nc1ccc(C(=O)O)c(C(=O)O)c1 | 
1.56 | 5.09 | 130 | 1.31 | CCOc1cc(N)ccc1C(=O)O | solubility [1]: soluble

log(PB) (Albumin) | pKa (physchem [2]) | IC50 (Escherichia coli [3]) [µM] | Rm [4] | Compound | further results
 | 5.3 | 90 | 3.77 | CCCCCCCOc1cc(N)ccc1C(=O)O | solubility [1]: soluble
1.57 | 3.52 | 25 | 1.92 | Nc1ccc(C(=O)O)c(O)c1 [AMINOSALICYLIC ACID] | pKa (physchem [6]): 3.62; inhibition (Escherichia coli [8]): inactive
1.67 | 3.69 | 8 | 2.38 | Cl.Nc1ccc(C(=O)O)c(Br)c1 | pKa (physchem [6]): 3.85
1.16 | 4.83 | 30 | 1.73 | Cc1cc(N)ccc1C(=O)O | 
1.97 | 4.47 | 85 |  | CCCCCCOc1cc(C(=O)O)ccc1N | solubility [1]: soluble; inhibition (Escherichia coli [8]): inactive
 |  |  |  | Nc1nc2c(c(=O)[nH]1)N=C(CNc1ccc(C(=O)O)cc1)CN2 | Activity (Escherichia coli [9]): Active; Activity (Escherichia coli [10]): Active
 |  |  |  | Nc1nc(O)c2c(n1)NCC(CNc1ccc(C(=O)O)cc1F)=N2 | Activity (Escherichia coli [9]): Active; Activity (Escherichia coli [10]): Active
 |  |  |  | Nc1nc(=O)c2nc(CNc3ccc(C(=O)N[C@@H](CCC(=O)O)C(=O)O)cc3)cnc2[nH]1 | Activity (Enterococcus faecalis [5]): Active
1.26 | 5.04 | 100 |  | COc1cc(N)ccc1C(=O)O | pKa (physchem [6]): 5.1
1.27 | 4.13 | 125 | 1.62 | Nc1ccc(C(=O)O)c(F)c1 | 
1.82 |  | 120 |  | Nc1ccc(C(=O)O)cc1C(=O)O | 
1.79 | 3.81 | 30 | 2.4 | Cl.Nc1ccc(C(=O)O)c(I)c1 | 
1.69 | 5.25 | 125 | 2.4 | CCCCOc1cc(N)ccc1C(=O)O | solubility [1]: soluble
 |  |  |  | Nc1nc(O)c2nc(CNc3ccc(C(=O)O)cc3)cnc2n1 | Activity (Enterococcus faecalis [5]): Active
1.89 | 3.96 | 130 | 3.11 | Nc1ccc(C(=O)O)cc1[N+](=O)[O-] | solubility [1]: soluble
 |  |  |  | Nc1nc(O)c2c(n1)NCC(CNc1ccc(C(=O)O)c(Cl)c1)=N2 | Activity (Escherichia coli [9]): Active; Activity (Escherichia coli [10]): Active
1 | 5.81 | 3.5 |  | Cl.Nc1ccc(C(=O)O)c(N)c1 | 
 | 5.17 | 125 | 2.7 | CC(C)CCOc1cc(N)ccc1C(=O)O | solubility [1]: soluble
1.36 | 3.88 | 45 | 2.17 | Nc1ccc(C(=O)O)c(Cl)c1 | pKa (physchem [6]): 3.93; inhibition (Escherichia coli [8]): inactive
